Values quoted from earlier work, collected in US6103723A, “Inhibitors of farnesyl-protein transferase” (Merck & Co., Inc., priority 1998, dated 2000).

Tested on: farnesyl-protein transferase
Conditions: via HMG-CoA reductase inhibition

SMILES	Indirect inhibition of farnesyl-protein transferase in vivo
CC[C@H](C)C(=O)O[C@H]1C[C@@H](C)C=C2C=C[C@H](C)[C@H](CC[C@@H]3C[C@@H](O)CC(=O)O3)[C@H]21 [lovastatin]	Indirect inhibition of farnesyl-protein transferase in vivo has been demonstrated
CC[C@H](C)C(=O)O[C@H]1CCC=C2C=C[C@H](C)[C@H](CC[C@@H]3C[C@@H](O)CC(=O)O3)[C@H]21 [compactin]	Indirect inhibition of farnesyl-protein transferase in vivo has been demonstrated
